In the supplement of paper PMC11451515:

Tested on: NOMO1
Assay: cell viability relative to DMSO control; higher = less cytotoxic
Details: 48 h
Outline: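 NOMO1, SEM and P12-Ichikawa leukemia cells spent at least four passages adapting to each medium before use. They were seeded at 500 cells/well (NOMO1, SEM) or 1000 cells/well (P12-Ichikawa) in 5 μl in 1536-well plates and pin-dosed with library compounds in DMSO at 11 threefold steps from 47 μM down to 0.79 nM. After 48 h at 37°C, CellTiter-Glo One luminescence was read. Viability is reported as a percentage of the DMSO wells on each plate, with cell-free wells as background.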

[1] = HPLM + 10% dialyzed FBS, 0.000781 µM
[2] = HPLM + 10% dialyzed FBS, 0.00234 µM
[3] = HPLM + 10% dialyzed FBS, 0.00702 µM
[4] = HPLM + 10% dialyzed FBS, 0.0211 µM
[5] = HPLM + 10% dialyzed FBS, 0.0632 µM
[6] = HPLM + 10% dialyzed FBS, 0.19 µM
[7] = HPLM + 10% dialyzed FBS, 0.569 µM
[8] = HPLM + 10% dialyzed FBS, 1.71 µM
[9] = HPLM + 10% dialyzed FBS, 5.12 µM
[10] = HPLM + 10% dialyzed FBS, 15.4 µM
[11] = HPLM + 10% dialyzed FBS, 46.1 µM
[12] = RPMI 5 mM glucose + 10% FBS, 0.000781 µM
[13] = RPMI 5 mM glucose + 10% FBS, 0.00234 µM
[14] = RPMI 5 mM glucose + 10% FBS, 0.00702 µM
[15] = RPMI 5 mM glucose + 10% FBS, 0.0211 µM
[16] = RPMI 5 mM glucose + 10% FBS, 0.0632 µM
[17] = RPMI 5 mM glucose + 10% FBS, 0.19 µM
[18] = RPMI 5 mM glucose + 10% FBS, 0.569 µM
[19] = RPMI 5 mM glucose + 10% FBS, 1.71 µM
[20] = RPMI 5 mM glucose + 10% FBS, 5.12 µM
[21] = RPMI 5 mM glucose + 10% FBS, 15.4 µM
[22] = RPMI 5 mM glucose + 10% FBS, 46.1 µM
[23] = RPMI 5 mM glucose + 10% dialyzed FBS, 0.000781 µM
[24] = RPMI 5 mM glucose + 10% dialyzed FBS, 0.00234 µM
[25] = RPMI 5 mM glucose + 10% dialyzed FBS, 0.00702 µM
[26] = RPMI 5 mM glucose + 10% dialyzed FBS, 0.0211 µM
[27] = RPMI 5 mM glucose + 10% dialyzed FBS, 0.0632 µM
[28] = RPMI 5 mM glucose + 10% dialyzed FBS, 0.19 µM
[29] = RPMI 5 mM glucose + 10% dialyzed FBS, 0.569 µM
[30] = RPMI 5 mM glucose + 10% dialyzed FBS, 1.71 µM
[31] = RPMI 5 mM glucose + 10% dialyzed FBS, 5.12 µM
[32] = RPMI 5 mM glucose + 10% dialyzed FBS, 15.4 µM
[33] = RPMI 5 mM glucose + 10% dialyzed FBS, 46.1 µM

Row | Structure (SMILES) | cell viability [1] [%] | cell viability [2] [%] | cell viability [3] [%] | cell viability [4] [%] | cell viability [5] [%] | cell viability [6] [%] | cell viability [7] [%] | cell viability [8] [%] | cell viability [9] [%] | cell viability [10] [%] | cell viability [11] [%] | cell viability [12] [%] | cell viability [13] [%] | cell viability [14] [%] | cell viability [15] [%] | cell viability [16] [%] | cell viability [17] [%] | cell viability [18] [%] | cell viability [19] [%] | cell viability [20] [%] | cell viability [21] [%] | cell viability [22] [%] | cell viability [23] [%] | cell viability [24] [%] | cell viability [25] [%] | cell viability [26] [%] | cell viability [27] [%] | cell viability [28] [%] | cell viability [29] [%] | cell viability [30] [%] | cell viability [31] [%] | cell viability [32] [%] | cell viability [33] [%]
1 | C[C@H]1[C@H](O)O[C@@H]2O[C@@]3(C)CC[C@H]4[C@H](C)CC[C@@H]1[C@@]24OO3 | 86 | 97.3 | 81 | 92.6 | 89.9 | 96 | 84.4 | 58.1 | 13.4 | 9.81 | 15.4 | 80.2 | 80.5 | 93.2 | 97.2 | 91.9 | 92.2 | 88 | 56.3 | 14.9 | 7.4 | 8.31 | 99.8 | 96 | 92 | 85.7 | 89 | 104 | 93.8 | 64.4 | 17.5 | 12.2 | 15.6
2 | CCCCOc1ccc(CC(=O)NO)cc1 | 122 | 124 | 114 | 121 | 101 | 104 | 104 | 109 | 107 | 95.4 | 85.3 | 101 | 110 | 122 | 99.3 | 97.4 | 118 | 108 | 108 | 96.1 | 97.2 | 81.2 | 107 | 123 | 116 | 126 | 109 | 111 | 109 | 103 | 95 | 94.7 | 86.9
3 | CCOC(CN1C(=O)[C@](CC(=O)Nc2ccc(C)cc2)(NC(=O)Nc2ccc(C)cc2)c2ccccc21)OCC | 109 | 112 | 125 | 113 | 123 | 122 | 126 | 124 | 106 | 83.8 | 70.7 | 110 | 107 | 106 | 107 | 113 | 104 | 123 | 125 | 113 | 103 | 49.8 | 99.2 | 101 | 105 | 99.8 | 114 | 115 | 109 | 115 | 99.3 | 93 | 60.3
4 | C[C@]12CC[C@@H]3c4ccc(O)cc4CC[C@H]3[C@@H]1CC[C@@H]2O | 124 | 124 | 124 | 112 | 117 | 115 | 117 | 116 | 112 | 56.3 | 46.9 |  |  |  |  |  |  |  |  |  |  |  | 107 | 116 | 105 | 133 | 128 | 116 | 104 | 103 | 104 | 91.8 | 35.6
